Data reported in patent US4551460A, “Pyrido[2,1-b]quinazoline derivatives useful as agents for treatment of allergic conditions and vascular disorders involving thrombosis” (priority 1983, dated 1985).
Like-named read-outs stand apart in the source and are kept apart here.

What was measured:
[1] = target: T1, PAF radioreceptor (dog platelets) (Canis lupus familiaris, UniProt A0A8I3NSH0); experiment: PAF radioreceptor binding assay; conditions: 3H-PAF
T1 construct: Platelet rich plasma is prepared by centrifugation of citrate-treated dog blood; from tissue; host or cells: washed dog platelets
T1 sequence (A0A8I3NSH0 1-343): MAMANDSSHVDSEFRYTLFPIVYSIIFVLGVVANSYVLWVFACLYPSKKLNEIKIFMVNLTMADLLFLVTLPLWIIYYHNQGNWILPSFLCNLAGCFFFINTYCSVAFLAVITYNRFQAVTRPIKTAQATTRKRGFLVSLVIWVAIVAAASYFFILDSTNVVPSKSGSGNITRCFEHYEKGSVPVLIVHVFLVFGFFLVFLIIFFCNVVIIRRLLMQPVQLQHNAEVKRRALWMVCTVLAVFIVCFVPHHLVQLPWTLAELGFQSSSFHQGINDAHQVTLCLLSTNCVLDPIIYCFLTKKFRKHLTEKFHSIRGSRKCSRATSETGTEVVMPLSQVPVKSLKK
Procedure: (m) PAF Radioreceptor Binding Assay
Platelet rich plasma is prepared by centrifugation of citrate-treated dog blood. Acidification to pH 6.5 with 0.15M citric acid and centrifugation for 10 minutes at 1000 g yields a platelet pellet which is then washed by resuspension in EDTA-Phosphate Buffered Saline (PBS) and recentrifuged. The washed platelet preparation is adjusted to 2×10^7 platelets/50 μl in 0.1% BSA-PBS.
To a […] microfuge tube containing 50 μl silicone oil (specific gravity 1.023) is added buffer, PAF standard or analog, or an extract to bring the aqueous volume to 150 μl. 50 μl of ^3 H-PAF (10,000 cpm, 45 Ci/mM) is added followed by 2×10^7 dog platelets. After mixing, incubating for 10 minutes at room temperature, and centrifuging for 1 minute in a Beckman Microfuge B (8000 g), the pellet is removed by clipping off the tip of the tube, solubilizing the platelets with 200 μl of 50% methanol, and counting in 10 ml of Aquasol.

[2] = LD50 in mice (acute toxicity); conditions: mouse, in vivo
[3] = test system: leukotriene E induced bronchoconstriction; experiment: LTE-induced bronchoconstriction in guinea pigs, in vivo (i.v. / oral); parameters: species or system guinea pig (Hartley strain); conditions: Cavia porcellus, read-out: ID50 (the source's name)
[4] = test system: cutaneous anaphylaxis in passively sensitized rats; experiment: Inhibition of allergic mediator release in the rat passive cutaneous anaphylaxis test; type: in vivo, rat (Sprague-Dawley); conditions: po, p.o., read-out: ID50 inhibition of allergic mediator release (PCA test)
Procedure: (i) Inhibition of Cutaneous Anaphylaxis in Passively Sensitized Rats
(l) Preparation of Antiserum
IgE-containing rat antiserum (reaginic antiserum) was prepared according to the following procedure. Normal, male Sprague-Dawley rats (150-200 g) obtained from Charles River Laboratories, Wilmington, Mass., were immunized by an intraperitoneal injection of 0.5 ml Bordetella pertussis vaccine (Cannaught Laboratories, Willowdale, Toronto, Canada, 20 ou/ml) containing 100 μg egg albumin (Nutritional Biochemical Corp., Cleveland, Ohio). On day 16, Nippostrongylus brasiliensis (3000 larvae/0.1 ml) was administered subcutaneously and on day 21, 10 μg of egg albumin was administered intraperitoneally in 0.5 ml normal saline. On day 30, blood was collected by heart puncture and the serum was separated by centrifugation and refrigerated overnight at 5° C. […]
The passive cutaneous anaphylaxis (PCA) test was performed on 190-220 g male Sprague-Dawley rats (Charles River Breeding Laboratories, Wilmington, Mass.), in a manner similar to that described by J. Goose and A.M.J.N. Blair, Immunology, 16, 749(1969). […] The long and short axis of each wheal was measured with a metric vernier caliper and the average diameter was obtained for each reaction. […] The ID50 was calculated by the method of J. Berkson, J.Am.Stat.Assoc., 48, 565(1953).

[5] = po, orally (2 hours pretreatment)

| SMILES | IC50 [1] [nM] | LD50 ([2]; ip, intraperitoneally) [mg/kg] | LD50 ([2]; po, orally) [mg/kg] | ED50 ([3]; iv) [mg/kg] | ED50 [3, 5] [mg/kg] | ED50 ([4]; 10 min, 10 minute pretreatment) [mg/kg] | ED50 ([4]; 5 min, 5 minute pretreatment) [mg/kg] |
| --- | --- | --- | --- | --- | --- | --- | --- |
| CC(C)c1ccc2nc3ccc(C(=O)NCCCCCCc4cccnc4)cn3c(=O)c2c1 [Compound C, 2-(1-Methylethyl)-N-[6-(3-pyridyl)hexyl]-11-oxo-11H-pyrido[2,1-b]quinazoline-8-carboxamide] | 1000 |  |  |  |  |  |  |
| CC(C)c1ccc2nc3ccc(C(=O)NCCCCn4ccnc4)cn3c(=O)c2c1 [Compound A, N-[4-(1H-imidazol-1-yl)butyl]-2-(1-methylethyl)-11-oxo-11H-pyrido[2,1-b]quinazoline-8-carboxamide] |  | 22 | 775 | 0.9 | 47 | 20 |  |
| CC(C)c1ccc2nc3ccc(C(=O)NCCCCc4cccnc4)cn3c(=O)c2c1 [Compound B, 2-(1-methylethyl)-N-[4-(3-pyridyl)butyl]-11-oxo-11H-pyrido[2,1-b]quinazoline-8-carboxamide] | 450 |  | > 1000 | 0.3 | 60 |  | 21 |
